The source of these data is the OligoGym collection.

HELM strings list units from the 5' end as sugar, base in round brackets, then linkage (d deoxyribose, r ribose, m 2'-O-methyl, p phosphodiester). Strings are as the collection lists them; they lack the last nucleoside at the 3' end of the tested compound. [moe] = 2'-O-(2-methoxyethyl) (MOE); [sp] = phosphorothioate linkage; [m5C] = 5-methylcytosine

The target of this data set is HTT. The data set is described as follows: mouse, dose not given. Conditions: ASO.
“RNA1{[moe](A)[sp].[moe](A)p.[moe]([m5C])p.[moe](A)p.[moe](A)[sp].d(A)[sp].d(T)[sp].d(A)[sp].d(T)[sp].d(T)[sp].d(T)[sp].d(T)[sp].d([m5C])[sp].d(A)[sp].d(A)[sp].[moe]([m5C])p.[moe](T)p.[moe](G)[sp].[moe](G)}$$$$ (last 3' nucleoside missing)” yielded a 3 h FOB score of 4.5 score 0-7.
The substance “RNA1{[moe](A)[sp].[moe](T)p.[moe]([m5C])p.[moe]([m5C])p.[moe](A)[sp].d(G)[sp].d(A)[sp].d(T)[sp].d(T)[sp].d(A)[sp].d(T)[sp].d(A)[sp].d([m5C])[sp].d(A)[sp].d(T)[sp].[moe]([m5C])p.[moe](T)p.[moe]([m5C])[sp].[moe]([m5C])}$$$$ (last 3' nucleoside missing)” had a 3 h FOB score of 0 score 0-7.
Next, “RNA1{[moe](A)[sp].[moe]([m5C])p.[moe](A)p.[moe](G)p.[moe]([m5C])[sp].d(T)[sp].d(T)[sp].d(T)[sp].d(T)[sp].d(A)[sp].d(T)[sp].d(T)[sp].d(T)[sp].d([m5C])[sp].d([m5C])[sp].[moe](A)p.[moe](T)p.[moe](A)[sp].[moe]([m5C])}$$$$ (last 3' nucleoside missing)”: 1 score 0-7; “RNA1{[moe](A)[sp].[moe]([m5C])p.[moe](A)p.[moe](G)p.[moe]([m5C])p.[moe](T)p.d(T)[sp].d(T)[sp].d(T)[sp].d(A)[sp].d(T)[sp].d(T)[sp].d(T)[sp].d([m5C])[sp].d([m5C])[sp].d(A)[sp].[moe](T)p.[moe](A)[sp].[moe]([m5C])}$$$$ (last 3' nucleoside missing)”: 0 score 0-7.
Take “RNA1{[moe](A)[sp].[moe]([m5C])p.[moe](T)p.[moe]([m5C])p.[moe](A)[sp].d(T)[sp].d(T)[sp].d(T)[sp].d([m5C])[sp].d([m5C])[sp].d(A)[sp].d([m5C])[sp].d([m5C])[sp].d(T)[sp].d(T)[sp].[moe]([m5C])p.[moe](A)p.[moe](G)[sp].[moe]([m5C])}$$$$ (last 3' nucleoside missing)”: the 3 h FOB score stood at 0 score 0-7.
The substance “RNA1{[moe](G)[sp].[moe](G)p.[moe](T)p.[moe](T)p.[moe](A)[sp].d(G)[sp].d(T)[sp].d(T)[sp].d(T)[sp].d(T)[sp].d([m5C])[sp].d([m5C])[sp].d(T)[sp].[moe](T)p.[moe](T)p.[moe](T)[sp].[moe](A)}$$$$ (last 3' nucleoside missing)” gave a 3 h FOB score of 1 score 0-7.
As for “RNA1{[moe](G)[sp].[moe](G)p.[moe](T)p.[moe](T)p.[moe](A)[sp].d(G)[sp].d(T)[sp].d(T)[sp].d(T)[sp].d(T)[sp].d([m5C])[sp].d([m5C])[sp].d(T)[sp].d(T)[sp].d(T)[sp].[moe](T)p.[moe](A)p.[moe](T)[sp].[moe](A)}$$$$ (last 3' nucleoside missing)”, the 3 h FOB score is 1 score 0-7.
Next, “RNA1{[moe](G)[sp].[moe](G)p.[moe](T)p.[moe]([m5C])p.[moe](A)[sp].d([m5C])[sp].d(A)[sp].d(G)[sp].d([m5C])[sp].d(T)[sp].d(T)[sp].d(T)[sp].d(T)[sp].d(A)[sp].d(T)[sp].[moe](T)p.[moe](T)p.[moe]([m5C])[sp].[moe]([m5C])}$$$$ (last 3' nucleoside missing)”: 0 score 0-7; “RNA1{[moe](G)[sp].[moe](T)p.[moe](G)p.[moe]([m5C])p.[moe](A)[sp].d(T)[sp].d(T)[sp].d(A)[sp].d([m5C])[sp].d(T)[sp].d(T)[sp].d(T)[sp].d(T)[sp].d(T)[sp].d(A)[sp].[moe]([m5C])p.[moe](A)p.[moe](A)[sp].[moe](T)}$$$$ (last 3' nucleoside missing)”: 1.25 score 0-7.
The same measure for “RNA1{[moe](G)[sp].[moe](T)p.[moe](G)p.[moe]([m5C])p.[moe](A)p.[moe](T)p.d(T)[sp].d(A)[sp].d([m5C])[sp].d(T)[sp].d(T)[sp].d(T)[sp].d(T)[sp].d(T)[sp].d(A)[sp].d([m5C])[sp].[moe](A)p.[moe](A)[sp].[moe](T)}$$$$ (last 3' nucleoside missing)”: 3 score 0-7; for “RNA1{[moe](G)[sp].[moe](T)p.[moe]([m5C])[sp].[moe](A)[sp].[moe]([m5C])[sp].d(A)[sp].d(G)[sp].d([m5C])[sp].d(T)[sp].d(T)[sp].d(T)[sp].d(T)[sp].d(A)[sp].d(T)[sp].d(T)[sp].[moe](T)[sp].[moe]([m5C])p.[moe]([m5C])[sp].[moe](A)}$$$$ (last 3' nucleoside missing)”: 1.25 score 0-7; for “RNA1{[moe](G)[sp].[moe](T)p.[moe]([m5C])p.[moe](A)p.[moe]([m5C])[sp].d(A)[sp].d(G)[sp].d([m5C])[sp].d(T)[sp].d(T)[sp].d(T)[sp].d(T)[sp].d(A)[sp].d(T)[sp].d(T)[sp].[moe](T)p.[moe]([m5C])p.[moe]([m5C])[sp].[moe](A)}$$$$ (last 3' nucleoside missing)”: 1 score 0-7.
Next, “RNA1{[moe](G)[sp].[moe]([m5C])p.[moe](A)[sp].[moe](T)[sp].[moe](T)[sp].d(A)[sp].d([m5C])[sp].d(T)[sp].d(T)[sp].d(T)[sp].d(T)[sp].d(T)[sp].d(A)[sp].d([m5C])[sp].d(A)[sp].[moe](A)[sp].[moe](T)p.[moe](G)[sp].[moe](G)}$$$$ (last 3' nucleoside missing)”: 5.25 score 0-7.
Regarding “RNA1{[moe](G)[sp].[moe]([m5C])p.[moe](A)p.[moe](T)p.[moe](T)[sp].d(A)[sp].d([m5C])[sp].d(T)[sp].d(T)[sp].d(T)[sp].d(T)[sp].d(T)[sp].d(A)[sp].d([m5C])[sp].d(A)[sp].[moe](A)p.[moe](T)p.[moe](G)[sp].[moe](G)}$$$$ (last 3' nucleoside missing)”, the 3 h FOB score turned out to be 1 score 0-7.
Next, “RNA1{[moe](G)[sp].[moe]([m5C])p.[moe](A)p.[moe](T)p.[moe]([m5C])[sp].d(T)[sp].d(T)[sp].d(G)[sp].d(T)[sp].d(T)[sp].d(T)[sp].d(T)[sp].d(A)[sp].d([m5C])[sp].d([m5C])[sp].[moe](A)p.[moe]([m5C])p.[moe]([m5C])[sp].[moe]([m5C])}$$$$ (last 3' nucleoside missing)”: 1.5 score 0-7.
In the case of “RNA1{[moe](G)[sp].[moe]([m5C])p.[moe](T)p.[moe](T)p.[moe](T)[sp].d(G)[sp].d(A)[sp].d(T)[sp].d(T)[sp].d(T)[sp].d(T)[sp].d(T)[sp].d(A)[sp].d([m5C])[sp].d([m5C])[sp].[moe](A)p.[moe](G)p.[moe](T)[sp].[moe](T)}$$$$ (last 3' nucleoside missing)”, the 3 h FOB score is 1 score 0-7.
The same measure for “RNA1{[moe](G)[sp].[moe]([m5C])p.[moe](T)p.[moe](T)p.[moe](T)[sp].d(T)[sp].d(G)[sp].d(A)[sp].d(A)[sp].d(A)[sp].d(T)[sp].d(T)[sp].d([m5C])[sp].d(T)[sp].d([m5C])[sp].[moe]([m5C])p.[moe](A)p.[moe](T)[sp].[moe]([m5C])}$$$$ (last 3' nucleoside missing)”: 6.75 score 0-7; for “RNA1{[moe](G)[sp].[moe]([m5C])p.[moe](T)p.[moe](T)p.[moe](T)p.[moe](G)p.d(A)[sp].d(T)[sp].d(T)[sp].d(T)[sp].d(T)[sp].d(T)[sp].d(A)[sp].d([m5C])[sp].d([m5C])[sp].d(A)[sp].[moe](G)p.[moe](T)[sp].[moe](T)}$$$$ (last 3' nucleoside missing)”: 0.5 score 0-7.
Next, “RNA1{[moe](G)[sp].[moe]([m5C])p.[moe]([m5C])p.[moe](A)p.[moe](T)[sp].d(A)[sp].d(T)[sp].d(T)[sp].d(T)[sp].d(T)[sp].d([m5C])[sp].d(T)[sp].d([m5C])[sp].d(A)[sp].d(A)[sp].[moe]([m5C])p.[moe](T)p.[moe](T)[sp].[moe](T)}$$$$ (last 3' nucleoside missing)”: 0 score 0-7; “RNA1{[moe](T)[sp].[moe](G)p.[moe]([m5C])p.[moe](A)p.[moe](T)p.[moe](T)p.d(A)[sp].d([m5C])[sp].d(T)[sp].d(T)[sp].d(T)[sp].d(T)[sp].d(T)[sp].d(A)[sp].d([m5C])[sp].d(A)[sp].[moe](A)p.[moe](T)[sp].[moe](G)}$$$$ (last 3' nucleoside missing)”: 6.5 score 0-7; “RNA1{[moe](T)[sp].[moe](G)p.[moe]([m5C])p.[moe](T)p.[moe](G)[sp].d([m5C])[sp].d(T)[sp].d([m5C])[sp].d(A)[sp].d([m5C])[sp].d(T)[sp].d([m5C])[sp].d(A)[sp].d(T)[sp].d(T)[sp].[moe](T)p.[moe]([m5C])p.[moe]([m5C])[sp].[moe](A)}$$$$ (last 3' nucleoside missing)”: 0 score 0-7.
The same measure for “RNA1{[moe](T)[sp].[moe](T)p.[moe](G)p.[moe](G)p.[moe](T)p.[moe](T)p.d(A)[sp].d(G)[sp].d(T)[sp].d(T)[sp].d(T)[sp].d(T)[sp].d([m5C])[sp].d([m5C])[sp].d(T)[sp].d(T)[sp].[moe](T)p.[moe](T)[sp].[moe](A)}$$$$ (last 3' nucleoside missing)”: 0 score 0-7; for “RNA1{[moe](T)[sp].[moe]([m5C])p.[moe](A)p.[moe]([m5C])p.[moe](A)[sp].d(G)[sp].d([m5C])[sp].d(T)[sp].d(T)[sp].d(T)[sp].d(T)[sp].d(A)[sp].d(T)[sp].[moe](T)p.[moe](T)p.[moe]([m5C])[sp].[moe]([m5C])}$$$$ (last 3' nucleoside missing)”: 0 score 0-7.
The substance “RNA1{[moe](T)[sp].[moe]([m5C])p.[moe]([m5C])p.[moe](T)p.[moe]([m5C])[sp].d(T)[sp].d(T)[sp].d(T)[sp].d([m5C])[sp].d(A)[sp].d([m5C])[sp].d(T)[sp].d(G)[sp].d([m5C])[sp].d(T)[sp].[moe](T)p.[moe]([m5C])p.[moe](T)[sp].[moe](A)}$$$$ (last 3' nucleoside missing)” yielded a 3 h FOB score of 3 score 0-7.
Next, “RNA1{[moe]([m5C])[sp].[moe](A)p.[moe]([m5C])p.[moe](A)p.[moe](G)[sp].d([m5C])[sp].d(T)[sp].d(T)[sp].d(T)[sp].d(T)[sp].d(A)[sp].d(T)[sp].d(T)[sp].d(T)[sp].d([m5C])[sp].[moe]([m5C])p.[moe](A)p.[moe](T)[sp].[moe](A)}$$$$ (last 3' nucleoside missing)”: 0 score 0-7.
